# Key:
# mould = assay: Mould count of spent brewer's / wet distiller's grains stored at ambient temperature; assay type: cell-based
# Protocol: (§1) Samples of Portion 1 (“AR”), Portion 3 (“SO”) and Portion 5 (“SH”) were then delivered to a microbiological testing facility about 15 kilometres from the treatment laboratory. Each was tested for initial total microbial, yeast and mould counts, respectively.
# (§2) Separate untreated samples were similarly stored under insect-proof screens at ambient temperature for seven days (as shown in Tables 1 and 2). During the trial period the ambient temperature ranged from 11 to 33 degrees C.
# (§3) The free moisture content on the initial spent brewer's grains was determined to be 78.1% m/m. After exposure to the environment for seven days, all of the samples were tested at a South African National Accreditation System (SANAS) approved microbiological testing facility. Each was tested for total micro-organism, yeast and mould counts to determine the affect of the various treatments. A similar procedure to that described in K. A. Rosentrater et al, Food Bioprocess Technol (2008) was used for the microbiological evaluation.
# (§4) At the laboratory, the samples were thoroughly mixed and initially split into a first portion (Portion 1) and a second portion (Portion 2). Portion 1 was left untreated. A sample of Portion 1, was delivered immediately to a microbiological testing facility about 15 kilometres away from the treatment laboratory and was tested for initial total microbial, yeast and mould counts, respectively. No water removal prior to treatment was done in this experiment as was the case in Example 8 wherein a similar wet material was partially dewatered by pressing and the residue treated with 10% (w/w/) calcium oxide.
# Samples from Portion 2 were subjected to treatment with varying amounts of a powdered, commercially-available calcium oxide containing approximately 94% calcium oxide (CaO) as shown in Table 32. […] The samples were stored in batches (according to the calcium oxide treatment) under insect-proof screens at ambient temperature for fifty six days. Separate untreated samples were similarly stored under insect-proof screens at ambient temperature for a total of 56 days. During the trial period the ambient temperature ranged from 10 to 30 degrees C. As this period was the southern hemisphere spring/early summer, the humidity as well as ambient temperatures varied widely.
# as §3, with “79.4%” for “78.1%”
# (§5) Samples from each treatment were drawn every seven days. No further calcium oxide treatment or agitation took place after the initial mix. In each case the entire sample was isolated and delivered to the microbiological testing facility.
# (§6) The calcium oxide treatment trial described in Example 9 wherein wet distiller's grains were treated with 2.5%, 5% and 10.0% calcium oxide, respectively, versus untreated material was repeated using lower doses of calcium oxide. In this trial the same source of wet distiller's grains (again with now partial water removal prior to treatment) was treated. Also, the same protocol as described in Example 9 was applied, but at lower doses of calcium oxide i.e. 0.5%, 1.0%, 1.5%, 2.0% and 2.5%, respectively, versus untreated material.
# (§7) In this trial the same source of wet distiller's grains (again with now partial water removal prior to treatment) was treated. Also, the same protocol as described in Example 9 was applied.
# yeast [1] = assay: Yeast count of spent brewer's / wet distiller's grains stored at ambient temperature; assay type: cell-based
# yeast [2] = assay: as above; assay type: cell-based; settings: dose 10% (w/w)
# Protocol: as §1, §2, §3, §4
# Samples from Portion 2 were subjected to treatment with varying amounts of a powdered, commercially-available calcium oxide containing approximately 94% calcium oxide (CaO) as shown in Table 32. The treatments varied from 2.5 to 10% (w/w) calcium oxide addition. The samples were stored in batches (according to the calcium oxide treatment) under insect-proof screens at ambient temperature for fifty six days. Separate untreated samples were similarly stored under insect-proof screens at ambient temperature for a total of 56 days. During the trial period the ambient temperature ranged from 10 to 30 degrees C. As this period was the southern hemisphere spring/early summer, the humidity as well as ambient temperatures varied widely.
# as §3, with “79.4%” for “78.1%”
# as §5, §6, §7
# [3] = pH of suspensions of grain samples in distilled water or PBS; settings: 1% (w/w) in distilled water
# Protocol: The untreated sample (A) was compared visually against the corresponding quicklime-treated sample (B).
# On Day 7, 10 g amounts of each sample were suspended in either 90 ml PBS or 90 ml sterile distilled water and shaken for 10 minutes. The pH of each suspension was then measured and compared.
# On Day 9, 10 g of each sample was suspended in 90 ml PBS and shaken for 10 minutes. The pH was measured.
compound,measurement,setting,value
[Ca+2].[O-]CC(O)CO.[O-]CC(O)CO [Ca-DGO granules],Mould Count,"mould; dose 10% (w/w), week 0",<10 cfu/gram
same,Mould Count,"mould; dose 10% (w/w), week 1",<10 cfu/gram
same,Mould Count,"mould; dose 10% (w/w), week 2",<10 cfu/gram
same,Mould Count,"mould; dose 10% (w/w), week 3",<10 cfu/gram
same,Mould Count,"mould; dose 10% (w/w), week 4",<10 cfu/gram
same,Mould Count,"mould; dose 10% (w/w), week 5",<10 cfu/gram
same,Mould Count,"mould; dose 10% (w/w), week 6",<10 cfu/gram
same,Mould Count,"mould; dose 10% (w/w), week 7",400 cfu/gram
same,Mould Count,"mould; dose 10% (w/w), week 8",250 cfu/gram
same,Mould Count,"mould; dose 10% (w/w), week 9",<10 cfu/gram
same,Mould Count,"mould; dose 15% (w/w), week 0",<10 cfu/gram
same,Mould Count,"mould; dose 15% (w/w), week 1",<10 cfu/gram
same,Mould Count,"mould; dose 15% (w/w), week 2",<10 cfu/gram
same,Mould Count,"mould; dose 15% (w/w), week 3",<10 cfu/gram
same,Mould Count,"mould; dose 15% (w/w), week 4",<10 cfu/gram
same,Mould Count,"mould; dose 15% (w/w), week 5",<10 cfu/gram
same,Mould Count,"mould; dose 15% (w/w), week 6",<10 cfu/gram
same,Mould Count,"mould; dose 15% (w/w), week 7",<10 cfu/gram
same,Mould Count,"mould; dose 15% (w/w), week 8",<10 cfu/gram
same,Mould Count,"mould; dose 15% (w/w), week 9",<10 cfu/gram
same,Yeast Count,"yeast [1]; dose 10% (w/w), week 0",<10 cfu/gram
same,Yeast Count,"yeast [1]; dose 10% (w/w), week 1",<10 cfu/gram
same,Yeast Count,"yeast [1]; dose 10% (w/w), week 2",<10 cfu/gram
same,Yeast Count,"yeast [1]; dose 10% (w/w), week 7",<10 cfu/gram
same,Yeast Count,"yeast [1]; dose 10% (w/w), week 8",<10 cfu/gram
same,Yeast Count,"yeast [1]; dose 15% (w/w), week 0",<10 cfu/gram
same,Yeast Count,"yeast [1]; dose 15% (w/w), week 1",<10 cfu/gram
same,Yeast Count,"yeast [1]; dose 15% (w/w), week 2",<10 cfu/gram
same,Yeast Count,"yeast [1]; dose 15% (w/w), week 3",<10 cfu/gram
same,Yeast Count,"yeast [1]; dose 15% (w/w), week 4",<10 cfu/gram
same,Yeast Count,"yeast [1]; dose 15% (w/w), week 5",30 cfu/gram
same,Yeast Count,"yeast [1]; dose 15% (w/w), week 6",<10 cfu/gram
same,Yeast Count,"yeast [1]; dose 15% (w/w), week 7",<10 cfu/gram
same,Yeast Count,"yeast [1]; dose 15% (w/w), week 8",<10 cfu/gram
same,Yeast Count,"yeast [1]; dose 15% (w/w), week 9",<10 cfu/gram
same,Yeast Count,yeast [2]; week 3,<10 cfu/gram
same,Yeast Count,yeast [2]; week 4,<10 cfu/gram
same,Yeast Count,yeast [2]; week 5,100 cfu/gram
same,Yeast Count,yeast [2]; week 6,<10 cfu/gram
same,Yeast Count,yeast [2]; week 9,<10 cfu/gram
same,pH,"[3]; dose 10% (w/w), week 0",10.2
same,pH,"[3]; dose 10% (w/w), week 1",9.87
same,pH,"[3]; dose 10% (w/w), week 2",7.09
same,pH,"[3]; dose 10% (w/w), week 3",7.90
same,pH,"[3]; dose 10% (w/w), week 4",8.89
same,pH,"[3]; dose 10% (w/w), week 5",6.83
same,pH,"[3]; dose 10% (w/w), week 6",8.93
same,pH,"[3]; dose 10% (w/w), week 7",7.24
same,pH,"[3]; dose 10% (w/w), week 8",8.63
same,pH,"[3]; dose 10% (w/w), week 9",8.96
same,pH,"[3]; dose 15% (w/w), week 0",11.53
same,pH,"[3]; dose 15% (w/w), week 1",11.35
same,pH,"[3]; dose 15% (w/w), week 2",6.61
same,pH,"[3]; dose 15% (w/w), week 3",8.03
same,pH,"[3]; dose 15% (w/w), week 4",8.54
same,pH,"[3]; dose 15% (w/w), week 5",7.20
same,pH,"[3]; dose 15% (w/w), week 6",9.25
same,pH,"[3]; dose 15% (w/w), week 7",7.21
same,pH,"[3]; dose 15% (w/w), week 8",9.17
same,pH,"[3]; dose 15% (w/w), week 9",8.95
[Ca+2].[O-2] [CaO powder],Mould Count,"mould; dose 5% (w/w), week 0",<10 cfu/gram
same,Mould Count,"mould; dose 5% (w/w), week 1",<10 cfu/gram
same,Mould Count,"mould; dose 5% (w/w), week 2",<10 cfu/gram
same,Mould Count,"mould; dose 5% (w/w), week 3",<10 cfu/gram
same,Mould Count,"mould; dose 5% (w/w), week 4",<10 cfu/gram
same,Mould Count,"mould; dose 5% (w/w), week 5",<10 cfu/gram
same,Mould Count,"mould; dose 5% (w/w), week 6",<10 cfu/gram
same,Mould Count,"mould; dose 5% (w/w), week 7",<10 cfu/gram
same,Mould Count,"mould; dose 5% (w/w), week 8",<10 cfu/gram
same,Mould Count,"mould; dose 5% (w/w), week 9",<10 cfu/gram
same,Mould Count,"mould; dose 10% (w/w), week 0",<10 cfu/gram
same,Mould Count,"mould; dose 10% (w/w), week 1",<10 cfu/gram
same,Mould Count,"mould; dose 10% (w/w), week 2",<10 cfu/gram
same,Mould Count,"mould; dose 10% (w/w), week 3",<10 cfu/gram
same,Mould Count,"mould; dose 10% (w/w), week 4",<10 cfu/gram
same,Mould Count,"mould; dose 10% (w/w), week 5",<10 cfu/gram
same,Mould Count,"mould; dose 10% (w/w), week 6",<10 cfu/gram
same,Mould Count,"mould; dose 10% (w/w), week 7",3500 cfu/gram
same,Mould Count,"mould; dose 10% (w/w), week 8",<10 cfu/gram
same,Mould Count,"mould; dose 10% (w/w), week 9",<10 cfu/gram
same,Yeast Count,"yeast [1]; dose 5% (w/w), week 0",<10 cfu/gram
same,Yeast Count,"yeast [1]; dose 5% (w/w), week 1",<10 cfu/gram
same,Yeast Count,"yeast [1]; dose 5% (w/w), week 2",<10 cfu/gram
same,Yeast Count,"yeast [1]; dose 5% (w/w), week 3",<10 cfu/gram
same,Yeast Count,"yeast [1]; dose 5% (w/w), week 4",<10 cfu/gram
same,Yeast Count,"yeast [1]; dose 5% (w/w), week 5",<10 cfu/gram
same,Yeast Count,"yeast [1]; dose 5% (w/w), week 6",<10 cfu/gram
same,Yeast Count,"yeast [1]; dose 5% (w/w), week 7",<10 cfu/gram
same,Yeast Count,"yeast [1]; dose 5% (w/w), week 8",<10 cfu/gram
same,Yeast Count,"yeast [1]; dose 5% (w/w), week 9",<10 cfu/gram
same,Yeast Count,"yeast [1]; dose 10% (w/w), week 0",<10 cfu/gram
same,Yeast Count,"yeast [1]; dose 10% (w/w), week 1",<10 cfu/gram
same,Yeast Count,"yeast [1]; dose 10% (w/w), week 2",<10 cfu/gram
same,Yeast Count,"yeast [1]; dose 10% (w/w), week 7",<10 cfu/gram
same,Yeast Count,"yeast [1]; dose 10% (w/w), week 8",<10 cfu/gram
same,Yeast Count,yeast [2]; week 3,<10 cfu/gram
same,Yeast Count,yeast [2]; week 4,<10 cfu/gram
same,Yeast Count,yeast [2]; week 5,<10 cfu/gram
same,Yeast Count,yeast [2]; week 6,<10 cfu/gram
same,Yeast Count,yeast [2]; week 9,<10 cfu/gram
same,pH,"[3]; dose 5% (w/w), week 0",12.93
same,pH,"[3]; dose 5% (w/w), week 1",12.05
same,pH,"[3]; dose 5% (w/w), week 2",11.19
same,pH,"[3]; dose 5% (w/w), week 3",7.82
same,pH,"[3]; dose 5% (w/w), week 4",9.23
same,pH,"[3]; dose 5% (w/w), week 5",7.55
same,pH,"[3]; dose 5% (w/w), week 6",9.23
same,pH,"[3]; dose 5% (w/w), week 7",7.28
same,pH,"[3]; dose 5% (w/w), week 8",7.60
same,pH,"[3]; dose 5% (w/w), week 9",8.45
same,pH,"[3]; dose 10% (w/w), week 0",13.12
same,pH,"[3]; dose 10% (w/w), week 1",12.56
same,pH,"[3]; dose 10% (w/w), week 2",12.38
same,pH,"[3]; dose 10% (w/w), week 3",12.36
same,pH,"[3]; dose 10% (w/w), week 4",12.20
same,pH,"[3]; dose 10% (w/w), week 5",12.12
same,pH,"[3]; dose 10% (w/w), week 6",11.92
same,pH,"[3]; dose 10% (w/w), week 7",7.56
same,pH,"[3]; dose 10% (w/w), week 8",8.38
same,pH,"[3]; dose 10% (w/w), week 9",11.77
